Counter-ions that a name gives are not always drawn.
Test: collision cross section in nitrogen (drift tube, single-field); higher = larger gas-phase ion size
[1] = ion type: [M+H], ion source: APCI, ion mode: Positive
[2] = ion type: [M+H], ion source: ESI, ion mode: Positive
[3] = ion type: [M+Na], ion source: ESI, ion mode: Positive
[4] = ion type: [M-H], ion source: ESI, ion mode: Negative
[5] = ion type: [M+], ion source: APCI, ion mode: Positive
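Note: chemical standards at 10 µM analysed by drift tube IMS-QTOF MS in about 3.95 torr nitrogen, mean of duplicate injections differing ≤1%, mass error below 10 ppm.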

Structure (SMILES)	collision cross section in nitrogen [1]	collision cross section in nitrogen [2]	collision cross section in nitrogen [3]	collision cross section in nitrogen [4]	further results
C=C(C)C(=O)OCCOCCOC(=O)C(=C)C [Di(ethylene glycol) dimethacrylate]	–	–	159.5 Å²	–	–
Nc1ccc(-c2ccc(N)c(Cl)c2)cc1Cl [3,3'-Dichlorobenzidine dihydrochloride]	–	167.6 Å²	–	–	collision cross section in nitrogen [5]: 153.3 Å²
Cc1c(C(=O)c2cnn(C)c2O)ccc(S(C)(=O)=O)c1C1=NOCC1 [Topramezone]	–	–	181.1 Å²	182.9 Å²	–
C=CCOCC(CC)(CO)CO [2-Allyloxymethyl-2-ethylpropanediol]	–	–	141.3 Å²	–	–
CCCOC/C(=N\c1ccc(Cl)cc1C(F)(F)F)n1ccnc1 [Triflumizole]	179.8 Å²	180 Å²	–	170.3 Å²	–
C=C(C)C(=O)NCCC[N+](C)(C)C	–	–	–	–	collision cross section in nitrogen (ion source: ESI, ion mode: Positive, ion type: [M]+ (permanent cation)): 143.3 Å²
O=S(=O)(O)C(F)(F)C(F)(F)C(F)(F)C(F)(F)C(F)(F)C(F)(F)C(F)(F)C(F)(F)F [Potassium perfluorooctanesulfonate]	–	–	–	169 Å²	–
CC(O)CN(CCCN(C)C)CCCN(C)C (stereo not given) [1-{Bis[3-(dimethylamino)propyl]amino}propan-2-ol]	157.5 Å²	158.1 Å²	158.4 Å²	–	–
CC(C)N(Cc1ccccc1)C(=O)C(C)(C)C [Butam]	154.6 Å²	154.5 Å²	163.4 Å²	–	–
c1cncc([C@@H]2CCCCN2)c1 [Anabasine]	136.4 Å²	135.9 Å²	–	–	–
C=C(C)[C@H]1Cc2c(ccc3c2O[C@@H]2COc4cc(OC)c(OC)cc4[C@@H]2C3=O)O1 [Rotenone]	–	194.8 Å²	207.3 Å²	199 Å²	–
Cc1ccc(N)c([N+](=O)[O-])c1 [4-Methyl-2-nitroaniline]	–	–	–	127.7 Å²	–
CSc1nc(NC(C)C)nc(NC(C)C)n1 [Prometryn]	160.9 Å²	161 Å²	–	–	–
Oc1ccc(C2(c3ccc(O)cc3)c3ccccc3-c3ccccc32)cc1 [4,4'-(9H-Fluorene-9,9-diyl)diphenol]	–	–	–	194.8 Å²	–
O=C1C[C@@H]2OCC=C3CN4CC[C@]56c7ccccc7N1[C@H]5[C@H]2[C@H]3C[C@H]46 [Strychnine hemisulphate salt]	172.6 Å²	175.8 Å²	–	–	–
O=C(O)C(F)(F)C(F)(F)C(F)(F)C(F)(F)C(F)(F)C(F)(F)C(F)(F)F [Perfluorooctanoic acid]	–	–	–	157 Å²	–
CC1=C(C(=O)Nc2ccccc2)S(=O)(=O)CCO1 [Oxycarboxin]	–	–	168.9 Å²	–	–
OC(Cn1cncn1)(c1ccc(F)cc1)c1ccccc1F (stereo not given) [Flutriafol]	–	167.5 Å²	183.1 Å²	–	–
CCCCOC(=O)COC(=O)c1ccccc1C(=O)OCCCC	–	–	193.5 Å²	–	–
O=C(N[C@H]1CN2CCC1CC2)c1ccc2c(c1)OCCO2	175.9 Å²	175.7 Å²	–	177.1 Å²	–
CC(C)CCCCCCCCCCCCCCC(=O)O [Isooctadecanoic acid]	–	–	–	177.8 Å²	–
O=[N+]([O-])c1ccc(O)c([N+](=O)[O-])c1 [2,4-Dinitrophenol]	–	–	–	127.8 Å²	–
NS(=O)(=O)O [Sulfamic acid]	–	–	–	112 Å²	–
CN(C)CCCNCCC#N [3-{[3-(Dimethylamino)propyl]amino}propanenitrile]	130.8 Å²	131.9 Å²	–	–	–
CN1COCN(Cc2cnc(Cl)s2)C1=N[N+](=O)[O-] [Thiamethoxam]	159.9 Å²	–	162.1 Å²	158.3 Å²	–
CCCCC(CC)COC(=O)CCCCCCCC(=O)OCC(CC)CCCC (stereo not given) [Bis(2-ethylhexyl) nonanedioate]	–	–	222.3 Å²	–	–
NC(=O)c1ccc(N)nc1 [6-aminopyridine-3-carboxamide]	130.2 Å²	131.3 Å²	–	124.5 Å²	–
COc1ccc(C(O)(c2cncnc2)C2CC2)cc1 (stereo not given) [Ancymidol]	164.3 Å²	164.2 Å²	–	–	–
CS(=O)(=O)c1cc(C(F)(F)F)ccc1C(=O)c1cnoc1C1CC1 [Isoxaflutole]	–	–	185.2 Å²	175.5 Å²	–

Now from value to molecule, other results behind:

collision cross section in nitrogen [1]	collision cross section in nitrogen [2]	collision cross section in nitrogen [3]	collision cross section in nitrogen [4]	Structure (SMILES)	further results
222.7 Å²	222.9 Å²	227.5 Å²	233.2 Å²	N=C(NCCCCCCNC(=N)NC(=N)Nc1ccc(Cl)cc1)NC(=N)Nc1ccc(Cl)cc1 [Chlorhexidine dihydrochloride]	–
234.1 Å²	235.6 Å²	239.2 Å²	235.2 Å²	COCCOc1cc2cc(C(=O)NC3CCN(C(C)C)CC3)n(CC(=O)Nc3ccc(Cl)cn3)c2cn1	–
150.5 Å²	150.1 Å²	161.1 Å²	–	NC(=O)N1c2ccccc2C=Cc2ccccc21 [Carbamazepine]	–
–	–	189.7 Å²	–	O=C(OCCOCCOCCOC(=O)c1ccccc1)c1ccccc1 [Ethylenebis(oxyethylene) dibenzoate]	–
–	–	–	120.5 Å²	O=[N+]([O-])c1ccc(O)cc1 [Sodium 4-nitrophenolate]	–
–	196.2 Å²	–	–	CC1=C(CC(=O)O)c2cc(F)ccc2/C1=C\c1ccc(S(C)=O)cc1 (stereo not given) [Sulindac]	–
–	–	–	177.2 Å²	CC[C@H](c1ccc(O)cc1)[C@@H](CC)c1ccc(O)cc1 [Hexestrol]	–
–	161.7 Å²	161.9 Å²	156.5 Å²	CC1=NN(c2cccc(S(=O)(=O)O)c2)C(=O)C1	–
–	156.5 Å²	–	–	CCCCCc1ccc(N)cc1 [4-Pentylaniline]	–
144.2 Å²	144.8 Å²	155.8 Å²	–	c1ccc([C@H]2CN3CCSC3=N2)cc1 [Levamisole hydrochloride]	–
208.4 Å²	208.2 Å²	214.4 Å²	–	CC[C@H]1CC[C@H](NCc2cc3c(cc2OC)[C@H]2C[C@H]2C(=O)N3C)[C@H](c2ccccc2)N1	–
–	193 Å²	211.3 Å²	209.4 Å²	CC1CN(c2cc3c(cc2F)c(=O)c(C(=O)O)cn3-c2ccc(F)cc2F)CCN1 (stereo not given) [Temafloxacin]	–
–	–	–	147.4 Å²	Oc1ccc(Nc2ccccc2)cc1 [4-Anilinophenol]	collision cross section in nitrogen [5]: 140.4 Å²
189.8 Å²	200.7 Å²	–	–	CCN(CC)c1ccc(C=NN(c2ccccc2)c2ccccc2)cc1 [4-[(Diphenylhydrazinylidene)methyl]-N,N-diethylaniline]	–
237 Å²	236.5 Å²	256.9 Å²	238.6 Å²	CCCOc1ccc(S(=O)(=O)N2CCN(CC)CC2)cc1-c1nc2c(CC)n(Cc3ccccn3)nc2c(=O)[nH]1	–
–	118.5 Å²	–	–	Nc1cccnc1N [2,3-Diaminopyridine]	–
125.2 Å²	126.2 Å²	–	–	Cc1ccc2ccccc2n1 [2-Methylquinoline]	–
–	–	–	147.5 Å²	CC(C)c1ccc(S(=O)(=O)O)cc1 [Sodium 4-isopropylbenzenesulfonate]	–
215.7 Å²	215.2 Å²	220.7 Å²	213.4 Å²	O=C(c1ccc(OCCN2CCCCC2)cc1)c1c(-c2ccc(O)cc2)sc2cc(O)ccc12 [Raloxifene hydrochloride]	–
186.3 Å²	–	–	190 Å²	CC(C)(C)CC(C)(C)c1ccc(O)c(-n2nc3ccccc3n2)c1 [Octrizole]	–
–	–	189.9 Å²	201.7 Å²	O=C1c2c(O)ccc(Nc3ccc(CCO)cc3)c2C(=O)c2c([N+](=O)[O-])ccc(O)c21 [C.I. Disperse Blue 27]	–
149.7 Å²	–	–	152.1 Å²	c1ccc(Nc2cccc3ccccc23)cc1 [N-Phenyl-1-naphthylamine]	collision cross section in nitrogen [5]: 148.7 Å²
136 Å²	136.9 Å²	–	–	CN1C(C)(C)CC(O)CC1(C)C [1,2,2,6,6-Pentamethylpiperidin-4-ol]	–
–	181.2 Å²	191.6 Å²	–	COc1ccc2c(c1)c(CC(=O)O)c(C)n2C(=O)c1ccc(Cl)cc1 [Indomethacin]	–
176.1 Å²	176.5 Å²	172.7 Å²	–	CC(C)(C)NC[C@H](O)COc1nsnc1N1CCOCC1 [Timolol maleate salt]	–
–	–	–	144.6 Å²	CCc1ccc(O)c(C(C)(C)C)c1 [2-tert-Butyl-4-ethylphenol]	–
–	–	–	172.2 Å²	C[C@]12CC[C@H]3C(=CCc4cc(O)ccc43)[C@@H]1CCC2=O [Equilin]	–
153.5 Å²	–	–	–	O=C1Cc2ccccc2N1c1c(Cl)cccc1Cl [1-(2,6-Dichlorophenyl)-2-indolinone]	–
–	–	168.8 Å²	–	CN(C)CCOC(c1ccccc1)c1ccccc1 [Diphenhydramine hydrochloride]	–
–	–	155.9 Å²	–	CCOC(=O)CC(=O)c1ccccc1 [Ethyl benzoylacetate]	–

Source: the supplement of paper PMC12317010
